Patent US20070004660A1, “Synergistic Modulation of Flt3 Kinase Using Alkylquinolines and Alkylquinazolines” (priority 2005, published 2007)

Biological target: T1, wild-type FLT3 receptor (Homo sapiens, UniProt P36888)
T1 construct: host or cells: Baf3 (murine B cell lymphoma line), stably transfected
T1 sequence (P36888 27-993): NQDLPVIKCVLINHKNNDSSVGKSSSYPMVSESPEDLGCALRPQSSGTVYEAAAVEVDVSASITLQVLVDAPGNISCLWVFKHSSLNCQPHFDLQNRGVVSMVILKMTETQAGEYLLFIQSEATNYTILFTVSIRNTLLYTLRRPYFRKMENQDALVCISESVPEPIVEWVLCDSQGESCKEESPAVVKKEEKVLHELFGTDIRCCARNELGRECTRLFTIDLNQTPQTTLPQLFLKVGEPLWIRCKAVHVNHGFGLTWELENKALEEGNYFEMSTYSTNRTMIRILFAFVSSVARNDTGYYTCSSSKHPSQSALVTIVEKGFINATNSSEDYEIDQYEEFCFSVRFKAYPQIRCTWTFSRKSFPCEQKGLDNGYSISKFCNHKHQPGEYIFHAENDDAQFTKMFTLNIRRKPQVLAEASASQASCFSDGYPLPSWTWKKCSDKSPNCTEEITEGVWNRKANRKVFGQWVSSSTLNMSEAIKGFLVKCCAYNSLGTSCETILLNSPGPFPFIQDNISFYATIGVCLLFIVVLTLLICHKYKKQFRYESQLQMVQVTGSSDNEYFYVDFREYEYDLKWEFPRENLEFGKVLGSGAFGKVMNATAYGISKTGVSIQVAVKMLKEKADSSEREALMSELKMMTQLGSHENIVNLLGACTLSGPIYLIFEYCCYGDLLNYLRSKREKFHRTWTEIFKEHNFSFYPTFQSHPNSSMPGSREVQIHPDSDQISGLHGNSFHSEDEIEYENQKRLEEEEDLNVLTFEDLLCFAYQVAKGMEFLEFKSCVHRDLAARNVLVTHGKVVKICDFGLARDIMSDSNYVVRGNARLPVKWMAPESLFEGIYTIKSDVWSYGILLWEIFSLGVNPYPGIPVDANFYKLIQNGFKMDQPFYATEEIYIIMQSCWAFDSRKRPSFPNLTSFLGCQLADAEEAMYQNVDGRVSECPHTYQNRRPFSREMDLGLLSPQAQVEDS
Test: Cell-based FLT3 receptor ELISA (FLT ligand-induced phosphorylation in Baf3 FLT3 cells)
Conditions: 100 ng/mL Flt ligand, uncertainty ±20%
Description: Specific cellular inhibition of FLT ligand-induced wild-type FLT3 phosphorylation was measured in the following manner: Baf3 FLT3 cells overexpressing the FLT3 receptor were obtained from Dr. Michael Heinrich (Oregon Health and Sciences University). The Baf3 FLT3 cell lines were created by stable transfection of parental Baf3 cells (a murine B cell lymphoma line dependent on the cytokine IL-3 for growth) with wild-type FLT3. Cells were selected for their ability to grow in the absence of IL-3 and in the presence of FLT3 ligand. Baf3 cells were maintained in RPMI 1640 with 10% FBS, penn/strep and 10 ng/ml FLT ligand at 37° C., 5% CO2. To measure direct inhibition of the wild-type FLT3 receptor activity and phosphorylation a sandwich ELISA method was developed similar to those developed for other RTKs (see Sadick, M D, Sliwkowski, M X, Nuijens, A, Bald, L, Chiang, N, Lofgren, J A, Wong W L T. Analysis of Heregulin-Induced ErbB2 Phosphorylation with a High-Throughput Kinase Receptor Activation Enzyme-Linked Immunsorbent Assay, Analytical Biochemistry. 1996; 235:207-214 and Baumann C A, Zeng L, Donatelli R R, Maroney A C. Development of a quantitative, high-throughput cell-based enzyme-linked immunosorbent assay for detection of colony-stimulating factor-1 receptor tyrosine kinase inhibitors. J Biochem Biophys Methods. 2004; 60:69-79.). 200 μL of Baf3FLT3 cells (1×10^6 /mL) were plated in 96 well dishes in RPMI 1640 with 0.5% serum and 0.01 ng/mL IL-3 for 16 hours prior to 1 hour compound or DMSO vehicle incubation. Cells were treated with 100 ng/mL Flt ligand (R&D Systems Cat# 308-FK) for 10 min. at 37° C. Cells were pelleted, washed and lysed in 100 ul lysis buffer (50 mM Hepes, 150 mM NaCl, 10% Glycerol, 1% Triton-X-100, 10 mM NaF, 1 mM EDTA, 1.5 mM MgCl2, 10 mM NaPyrophosphate) supplemented with phosphatase (Sigma Cat# P2850) and protease inhibitors (Sigma Cat #P8340). Lysates were cleared by centrifugation at 1000×g for 5 minutes at 4° C. Cell lysates were transferred to white wall 96 well microtiter (Costar #9018) plates coated with 50 ng/well anti-FLT3 antibody (Santa Cruz Cat# sc-480) and blocked with SeaBlock reagent (Pierce Cat#37527). Lysates were incubated at 4° C. for 2 hours. Plates were washed 3× with 200 ul/well PBS/0.1% Triton-X-100. Plates were then incubated with 1:8000 dilution of HRP-conjugated anti-phosphotyrosine antibody (Clone 4G10, Upstate Biotechnology Cat#16-105) for 1 hour at room temperature. Plates were washed 3× with 200 ul/well PBS/0.1% Triton-X-100. Signal detection with Super Signal Pico reagent (Pierce Cat#37070) was done according to manufacturer's instruction with a Berthold microplate luminometer. All data points are an average of triplicate samples. […] Inhibition and IC50 data analysis was done with GraphPad Prism using a non-linear regression fit with a multiparamater, sigmoidal dose-response (variable slope) equation.

Row | SMILES | IC50
1 | CC(C)Oc1ccc(NC(=O)N2CCC(c3ccnc4ccccc34)CC2)cc1 [Example 6, 4-Quinolin-4-yl-piperidine-1-carboxylic acid (4-isopropoxy-phenyl)-amide] | 40 nM
2 | CC(C)c1ccc(NC(=O)N2CCC(c3ncnc4ccccc34)CC2)cc1 [Example 7, 4-Quinazolin-4-yl-piperidine-1-carboxylic acid (4-isopropyl-phenyl)-amide] | 367 nM
3 | CC(C)Oc1ccc(NC(=O)N2CCC(c3ncnc4ccccc34)CC2)cc1 [Example 8, 4-Quinazolin-4-yl-piperidine-1-carboxylic acid (4-isopropoxy-phenyl)-amide] | 851 nM
4 | COc1cc2ncnc(C3CCN(CC(=O)Nc4ccc(C(C)C)cc4)CC3)c2cc1OC [Example 9, 2-[4-(6,7-Dimethoxy-quinazolin-4-yl)-piperidin-1-yl]-N-(4-isopropyl-phenyl)-acetamide] | 7 nM
5 | CC(C)Oc1ccc(NC(=O)N2CCC(c3ncnc4ccc(I)cc34)CC2)cc1 [Example 11, 4-(6-Iodo-quinazolin-4-yl)-piperidine-1-carboxylic acid (4-isopropoxy-phenyl)-amide] | 1400 nM
6 | CC(C)Oc1ccc(NC(=O)N2CCC(c3ncnc4ccc(C#CCO)cc34)CC2)cc1 [Example 12, 4-[6-(3-Hydroxy-prop-1-ynyl)-quinazolin-4-yl]-piperidine-1-carboxylic acid (4-isopropoxy-phenyl)-amide] | 36 nM
7 | CCN(CC)CC#Cc1ccc2ncnc(C3CCN(C(=O)Nc4ccc(OC(C)C)cc4)CC3)c2c1 [Example 13, 4-[6-(3-Diethylamino-prop-1-ynyl)-quinazolin-4-yl]-piperidine-1-carboxylic acid (4-isopropoxy-phenyl)-amide] | 27 nM
8 | CC(C)Oc1ccc(NC(=O)N2CCC(c3ncnc4ccc(C#CCN5CCCCC5)cc34)CC2)cc1 [Example 14, 4-[6-(3-Piperidin-1-yl-prop-1-ynyl)-quinazolin-4-yl]-piperidine-1-carboxylic acid (4-isopropoxy-phenyl)-amide] | 186 nM
9 | COc1cc2ncnc(C3CCN(C(=O)NC4CCC(C(C)(C)C)CC4)CC3)c2cc1OC (stereo not shown) [Example 54, 4-(6,7-Dimethoxy-quinazolin-4-yl)-piperidine-1-carboxylic acid (4-tert-butyl-cyclohexyl)-amide] | 266 nM
10 | COc1cc2ncnc(C3CCN(C(=O)Nc4ccc(-c5cncnc5)cc4)CC3)c2cc1OC [Example 58, 4-(6,7-Dimethoxy-quinazolin-4-yl)-piperidine-1-carboxylic acid (4-pyrimidin-5-yl-phenyl)-amide] | 265 nM
11 | COc1cc2ncnc(C3CCN(C(=O)Nc4ccc(-c5ccc(Cl)nc5)cc4)CC3)c2cc1OC [Example 60, 4-(6,7-Dimethoxy-quinazolin-4-yl)-piperidine-1-carboxylic acid [4-(6-chloro-pyridin-3-yl)-phenyl]-amide] | 46 nM
12 | COc1cc2ncnc(C3CCN(C(=O)Nc4ccc(C5=CCN(C(=O)OC(C)(C)C)CC5)cc4)CC3)c2cc1OC [Example 61, 4-(4-{[4-(6,7-Dimethoxy-quinazolin-4-yl)-piperidine-1-carbonyl]-amino}-phenyl)-3,6-dihydro-2H-pyridine-1-carboxylic acid tert-butyl ester] | 1800 nM

Continued, values first:

Row | IC50 | SMILES
13 | 56 nM | COc1cc2ncnc(C3CCN(C(=O)Nc4ccc(C(C)C)cc4)CC3)c2cc1OC [Example 4, 4-(6,7-Dimethoxy-quinazolin-4-yl)-piperidine-1-carboxylic acid (4-isopropyl-phenyl)-amide]
14 | 31 nM | COc1cc2ncnc(C3CCN(CC(=O)Nc4ccc(OC(C)C)cc4)CC3)c2cc1OC [Example 10, 2-[4-(6,7-Dimethoxy-quinazolin-4-yl)-piperidin-1-yl]-N-(4-isopropoxy-phenyl)-acetamide]
15 | 59 nM | CCCCc1ccc(NC(=O)N2CCC(c3ncnc4cc(OC)c(OC)cc34)CC2)cc1 [Example 43, 4-(6,7-Dimethoxy-quinazolin-4-yl)-piperidine-1-carboxylic acid (4-butyl-phenyl)-amide]
16 | 163 nM | CCOc1ccc(NC(=O)N2CCC(c3ncnc4cc(OC)c(OC)cc34)CC2)cc1 [Example 44, 4-(6,7-Dimethoxy-quinazolin-4-yl)-piperidine-1-carboxylic acid (4-ethoxy-phenyl)-amide]
17 | > 3000 nM | COc1cc2ncnc(C3CCN(C(=O)Nc4ccccc4)CC3)c2cc1OC [Example 45, 4-(6,7-Dimethoxy-quinazolin-4-yl)-piperidine-1-carboxylic acid phenylamide]
18 | 8 nM | COc1cc2ncnc(C3CCN(C(=O)Nc4ccc(Oc5ccccc5)cc4)CC3)c2cc1OC [Example 47, 4-(6,7-Dimethoxy-quinazolin-4-yl)-piperidine-1-carboxylic acid (4-phenoxy-phenyl)-amide]
19 | 542 nM | COc1cc2ncnc(C3CCN(C(=O)Nc4ccc(OC(F)F)cc4)CC3)c2cc1OC [Example 51, 4-(6,7-Dimethoxy-quinazolin-4-yl)-piperidine-1-carboxylic acid (4-difluoromethoxy-phenyl)-amide]
20 | 7 nM | CCC(C)c1ccc(NC(=O)N2CCC(c3ncnc4cc(OC)c(OC)cc34)CC2)cc1 (stereo not shown) [Example 52, 4-(6,7-Dimethoxy-quinazolin-4-yl)-piperidine-1-carboxylic acid (4-sec-butyl-phenyl)-amide]
21 | 5 nM | COc1cc2ncnc(C3CCN(C(=O)Nc4ccc(C(C)(C)C)cc4)CC3)c2cc1OC [Example 53, 4-(6,7-Dimethoxy-quinazolin-4-yl)-piperidine-1-carboxylic acid (4-tert-butyl-phenyl)-amide]
22 | 1000 nM | COc1cc2ncnc(C3CCN(C(=O)Nc4ccc(C(C)O)cc4)CC3)c2cc1OC (stereo not shown) [Example 55, 4-(6,7-Dimethoxy-quinazolin-4-yl)-piperidine-1-carboxylic acid [4-(1-hydroxy-ethyl)-phenyl]-amide]
23 | 10 nM | COc1cc2ncnc(C3CCN(C(=O)Nc4ccc(OC(C)C)nc4)CC3)c2cc1OC [Example 56, 4-(6,7-Dimethoxy-quinazolin-4-yl)-piperidine-1-carboxylic acid (6-isopropoxy-pyridin-3-yl)-amide]
24 | 381 nM | COc1cc2ncnc(C3CCN(C(=O)Nc4ccc(N5CCCC5=O)cc4)CC3)c2cc1OC [Example 57, 4-(6,7-Dimethoxy-quinazolin-4-yl)-piperidine-1-carboxylic acid [4-(2-oxo-pyrrolidin-1-yl)-phenyl]-amide]
25 | 27 nM | COc1cc2ncnc(C3CCN(C(=O)Nc4ccc(-c5ccco5)cc4)CC3)c2cc1OC [Example 59, 4-(6,7-Dimethoxy-quinazolin-4-yl)-piperidine-1-carboxylic acid (4-furan-2-yl-phenyl)-amide]
